Consider five molecules from patent US9138434B2, “Octahydrothienoquinoline derivative, pharmaceutical composition comprising derivative, and use of these” (KISSEI PHARMACEUTICAL CO., LTD., priority 2011, dated 2015).

pEC50: −log10 of the molar value. Like-named read-outs stand apart in the source and are kept apart here.

Assay [1] has as its target T1, human serotonin 5-HT2B receptor (Homo sapiens, UniProt P41595).
T1 construct: expressed in transfected cells; host or cells: HEK293, transient transfection (Lipofectamine 2000)
The experiment in a line: Stimulating activities on human serotonin 5-HT2B receptor, intracellular calcium in forced expression HEK293 cells. Format: cell-based. The protocol: Identification Test of Stimulating Activities on Human Serotonin 5-HT2B Receptor
The PCR was performed using forward primer depicted as sequence ID No. 4, reverse primer depicted as sequence ID No. 5 and KOD-Plus-Ver.2 (TOYOBO) as template of human brain hippocampus cDNA (Clontech). The PCR product was inserted into a plasmid (pcDNA3.1/V5-His-Topo (registered mark)). The PCR product-inserted plasmid was transformed in E. coli (One Shot TOP10 Chemically Competent). That E. coli was incubated in LB agar medium contained 50 μg/mL ampicillin for a day. A selected colony was incubated in LB medium contained 50 μg/mL ampicillin and PCR product-inserted plasmid was purified with QIAprep Spin Miniprep Kit (QIAGEN).
Mostly confluent HEK293 cells were washed with PBS, followed by exfoliation with 0.05% trypsin-EDTA and the cells were suspended in D-MEM liquid medium (phenol red-free, low glucose, pyruvic acid were contained) containing fetal bovine serum (final concentration: 10%) and GlutaMax (registered mark)I (final concentration: 2 mM). The suspension was scattered at 5×10^4 cells/100 L/well on poly-D-lysine-coated 96-well microplate (BD BioCoat (registered mark)). The scattered cells were cultured in 5% CO2 incubator at 37° C. Human serotonin 5-HT2B receptor expression plasmid was transfected in that cells according to the procedure seeing below.
Human serotonin 5-HT2B receptor expression plasmid and Lipofectamine (registered mark) 2000 (Invitrogen) were diluted to 0.008 g/L and 0.016 g/L each other with OPTI-MEM (registered mark)I Reduced-Serum Medium and incubated at room temperature. After incubation, the human serotonin 5-HT2B receptor exoression plasmid-diluted liquid and Lipofectamine (registered mark) 2000-diluted liquid were mixed at an equal volume and incubated at room temperature to form a complex. The complex was dispensed at 50 μL/well on the cells prepared above. The cells were incubated in 5% CO2 incubator at 37° C. for 2 days. After incubation, the cells were used as human serotonin 5-HT2B receptor forced expression cells for measurement of intracellular calcium concentration.
3) Determination of Stimulating Activities of Human Serotonin 5-HT2B Receptor
The stimulating activities of human serotonin 5-HT2B receptor was determined by measuring of intracellular calcium concentration. The 30 mM dimethyl sulfoxide (DMSO) solution contained test compounds or serotonin hydrochloride (Sigma) as positive control, was diluted with assay buffer ((HBSS), 20 mM HEPES, 1.3 mM calcium chloride, 0.5 mM magnesium chloride and 0.4 mM magnesium sulfate were contained, pH7.4) to appropriate concentration.
The forced expression cells were washed with assay buffer, and 100 μL/well of fluorescent calcium indicator (Fluo-4 NW Calcium Assay Kit) was added and incubated in 5% CO2 incubator at 37° C. After incubation, 50 μL/well of each test compound was added, and the concentration of intracellular calcium was measured as fluorescent signal with FlexStation (registered mark) II (Molecular Devices). The data was analyzed by nonlinear regression and sigmoidal dose-response curve fitting using GraphPad PRISM 4.0, and values of EC50 (concentration of the compound producing half the maximal effect of the compound) were calculated. The data was presented as mean value (n=2).
A general note: Calcium flux is commonly read through the fluorescence of an indicator in the cells.

Assay [2] has as its target T2, human dopamine D2 receptor (Homo sapiens, UniProt P14416).
T2 construct: accorded to it of human dopamine D2 receptor (NM1-000795) registered on NCBI completely; expressed in transfected cells; membrane homogenates
The assay can be described thus: Stimulating activities on human dopamine D2 receptor, [35S]GTPγS binding to hD2R#7 cell membrane homogenates. Format: biochemical. The protocol: Identification Test of Stimulating Activities on Human Dopamine D2 Receptor
4) Preparation of Membrane Homogenates from hD2R#7 Cells
(2) Preparation of Membrane Homogenates from hD2R#7 Cells
The cells, which were grown to confluence in 150 mm dishes (IWAKI), were harvested with isotonic buffer (50 mM Tris (Sigma), 2 mM ethylenediamine-tetraacetic acid (Invitrogen), and 125 mM sodium chloride (Wako Pure Chemicals), pH 7.4) and centrifuged at 1880×g and 4° C. for 10 minutes, and the cell pellets were then suspended in isotonic buffer. After being subjected to one cycle of freezing and thawing, the cells were centrifuged at 1880×g and 4° C. for 10 minutes, and the cell pellets were suspended in isotonic buffer. The cells were centrifuged at 1880×g and 4° C. for 10 minutes, and the cell pellets were suspended in isotonic buffer and homogenate buffer (10 mM sodium bicarbonate (Nacalai) and 5 mM ethylenediamine-tetraacetic acid, pH 7.5). The volume ratio of isotonic-to-homogenate buffer was 2. The cells were sonicated and centrifuged at 1880×g and 4° C. for 10 minutes, and the supernatants were ultracentrifuged at 80000×g and 4° C. for 30 minutes. The final cell pellets were suspended in homogenate buffer containing protease inhibitor cocktail (Nacalai) and stored at −80° C. until use. The protein concentration was determined using BCA Protein Assay Kit (Pierce) in accordance with the manufacturer's instructions.
5) Determination of Stimulating Activities of Human Dopamine D2 Receptor
The stimulating activities of human dopamine D2 receptor was determined by measuring the binding potential of [^35S]-guanosine 5′-[gamma-thio]triphosphate ([^35S]GTPγS, PerkinElmer) according to the method described by Newman-Tancredi A. et al. (Naunyn-Schmiedeberg's Arch Pharmacol, 1999, vol. 359, pp. 447-453) with a minor modification. Test compounds and dopamine hydrochloride (Fluka) as positive control were dissolved in dimethyl sulfoxide (CARLBIOCHEM), resulting in 30 mM. The both compounds were diluted with assay buffer (50 mM Tris, 100 mM sodium chloride, 5 mM magnesium chloride (Nacalai), 1 mM ethylenediamine-tetraacetic acid, 1 mM dithiothreitol (Wako Pure Chemicals), 10 μM guanosine diphosphate (Wako Pure Chemicals) and 0.5% bovine serum albumin (Sigma), pH 7.4) to a final concentration of 100 pM (only test compounds), 1 nM, 10 nM, 100 nM, 1 μM, 10 μM and 100 μM (only dopamine hydrochloride). The above membrane homogenates and [^35S]GTPγS were diluted with assay buffer to a final concentration of 0.06 mg/mL and 0.6 nM, respectively. The serial diluted compounds (50 μL), the diluted membrane homogenates (50 μL) and the diluted [^35S]GTPγS (50 μL) were mixed on multi-screen 96-well plate (Millipore) and shaken lightly at room temperature for 60 minutes. The reaction was terminated by vacuum filtration with three times washes of ice-cold wash buffer (50 mM Tris, 100 mM sodium chloride, 5 mM magnesium chloride, and 1 mM ethylenediamine-tetraacetic acid, pH 7.4). After drying the bottoms of the plate at 60° C., MicroScinti-40 (PerkinElmer) (30 μL) was added in the plate. The tops of the plate were sealed by TopSeal-A (PerkinElmer), and the radioactivity was determined in a TopCount NXT (registered mark) (PerkinElmer) after shaking lightly for 5-10 minutes. The data was analyzed by nonlinear regression and sigmoidal dose-response curve fitting using GraphPad PRISM 4.0 (GraphPad Software), and values of EC50 (concentration of the compound producing half the maximal effect of the compound) were calculated. The data was presented as mean value (n=2).
Background: GTPγS resists hydrolysis and so accumulates on activated G proteins.

Assay [3] relates to unilateral 6-OHDA-lesioned hemi-Parkinsonian rats. The assay can be described thus: Contralateral rotational behavior in unilateral 6-hydroxydopamine-lesioned hemi-parkinsonian rats. Format: in vivo, rat (male Sprague-Dawley). The settings on record: 10 mg/kg oral, fasted rats, observed up to 24 hours, mean. As for the experimental part: 6-OHDA was dissolved at 2 mg/mL in a physiolosical saline solution containing 0.2% L-ascorbic acid. Desipramine was dissolved at 10 mg/mL in a physiolosical saline solution in a hot-water bath. Apomorphine was dissolved at 0.1 mg/mL in a physiolosical saline solution. […] Test compounds were dissolved in a solution containing 2% DMA, 100 or 200 mol % hydrochloric acid, and 98% of a 0.5% methyl cellulose solution. […] (Eur J Pharmacol, 2000, vol. 408, P. 249-255) with a minor modification. Male Sprague-Dawley rats (6-weeks-old, Charles River Laboratories Japan Inc.) were anaesthetized with intraperitoneal somnopentyl (45 mg/kg) injection and placed in a stereotaxic frame (Narishige). In order to prevent 6-OHDA-induced damage of noradrenergic neurons, desipramine (25 mg/kg) was intraperitoneally injected 30 minutes before the 6-OHDA injection. After the bregma identification via a middle calvarial incision, the skull was drilled using a dental drill at the site of 6-OHDA injection. The lesion was made by injecting 6-OHDA (8 μg in 4 μL at a speed of 1 μL/minute) unilaterally into the left medial forebrain bundle by using a injection cannula (30 gauge needle) connected to a microsyringe (Hamilton) (the lesion coordinates; A/P −2.5 mm, L/M −1.8 mm, and V/D −8.0 mm, from the bregma point and surface of the skull). The cannula was carefully removed from the animal after keeping placed on the lesion site for 5 minutes. The skull was filled its hole with dental cement, disinfected, and the scalp incision was surgically sutured. Animals recovered from anesthesia were housed as usual until the day of the experiment. 3) Determining of Contralateral Rotational Behavior Three weeks after the lesion, rats were tested on the basis of their contralateral rotational behavior (single rotation was defined as a 360° turn) in response to 0.1 mg/kg apomorphine given subcutaneously. For behavioral observation, rats were placed in plastic cylinders of a diameter of 30 cm, and its contralateral rotational behaviors were videotaped and quantified by rat-rotation auto counting system R-RACS (Kissei Wellcom). On the experimental day, animals were fasted overnight, and test compounds were orally administrated at doses of 10 mg/kg. […] Total number of rotations and the duration of the response in experimental period were presented as mean value.

Where [4] appears, read: intracellular calcium (Fluo-4), HEK293 cells transiently expressing human 5-HT2B receptor, mean, n=2, read-out: EC50.
[5] abbreviates: [35S]GTPγS binding, membrane homogenates of HEK293 cells stably expressing human D2 receptor, mean, n=2, read-out: EC50.

T1 sequence (P41595 whole entry): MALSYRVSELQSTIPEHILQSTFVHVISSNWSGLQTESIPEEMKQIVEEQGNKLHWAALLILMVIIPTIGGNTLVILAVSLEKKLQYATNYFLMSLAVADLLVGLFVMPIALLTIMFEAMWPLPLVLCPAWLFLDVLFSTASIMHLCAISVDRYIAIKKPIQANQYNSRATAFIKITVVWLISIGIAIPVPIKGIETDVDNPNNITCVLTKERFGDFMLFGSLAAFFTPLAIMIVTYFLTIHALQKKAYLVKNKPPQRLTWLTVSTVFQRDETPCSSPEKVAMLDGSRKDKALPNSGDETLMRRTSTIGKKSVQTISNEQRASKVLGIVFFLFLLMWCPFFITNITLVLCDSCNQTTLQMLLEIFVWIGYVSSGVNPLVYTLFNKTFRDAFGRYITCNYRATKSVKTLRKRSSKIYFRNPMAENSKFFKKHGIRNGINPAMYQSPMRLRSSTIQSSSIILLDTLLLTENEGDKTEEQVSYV
T2 sequence (P14416 whole entry): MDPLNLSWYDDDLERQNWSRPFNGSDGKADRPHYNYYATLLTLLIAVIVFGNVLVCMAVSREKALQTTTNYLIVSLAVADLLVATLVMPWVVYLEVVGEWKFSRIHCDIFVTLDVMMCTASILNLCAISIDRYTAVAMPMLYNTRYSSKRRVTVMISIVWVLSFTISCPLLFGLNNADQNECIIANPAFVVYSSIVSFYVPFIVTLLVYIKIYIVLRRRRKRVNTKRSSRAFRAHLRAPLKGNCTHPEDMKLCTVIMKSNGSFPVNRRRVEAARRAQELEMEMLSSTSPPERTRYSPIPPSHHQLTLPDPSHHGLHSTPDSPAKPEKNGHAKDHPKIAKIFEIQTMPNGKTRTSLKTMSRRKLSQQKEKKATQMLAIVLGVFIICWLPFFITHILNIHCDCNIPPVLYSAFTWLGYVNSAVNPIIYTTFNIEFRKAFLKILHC

In the case of `CN(C)CC(C)(C)CNC(=O)N(CC1CC1)C(=O)[C@@H]1C[C@@H]2Cc3c(sc(N)c3C#N)C[C@H]2N(C)C1` [1-104, 1-{[(4aR,6R,8aR)-2-amino-3-cyano-8-methyl-4H,4aH,5H,6H,7H,8H,8aH,9H-thieno[3,2-g]quinolin-6-yl]carbonyl}-1-(cyclopropylmethyl)-3-[3-(dimethylamino)-2,2-dimethyl-propyl]urea], the pEC50 – broadly, the EC50 on a negative log10 scale, so that one unit is a factor of ten – in assay [1] (setting [4]) was less than 5.00; in assay [2] (setting [5]), 8.40.
With `CCN(CC)CCNC(=O)N(CC)C(=O)[C@@H]1C[C@@H]2Cc3c(sc(N)c3C#N)C[C@H]2N(C)C1` [1-105, 1-{[(4aR,6R,8aR)-2-amino-3-cyano-8-methyl-4H,4aH,5H,6H,7H,8H,8aH,9H-thieno[3,2-g]quinolin-6-yl]carbonyl}-3-[2-(diethylamino)ethyl]-1-ethylurea], the negative-log EC50 (pEC50) in assay [1] was less than 5.00; in assay [2], 8.30.
Take `CCN(C(=O)NC(C)(C)CN(C)C)C(=O)[C@@H]1C[C@@H]2Cc3c(sc(N)c3C#N)C[C@H]2N(C)C1` [1-106, 1-{[(4aR,6R,8aR)-2-amino-3-cyano-8-methyl-4H,4aH,5H,6H,7H,8H,8aH,9H-thieno[3,2-g]quinolin-6-yl]carbonyl}-3-[1-(dimethylamino)-2-methylpropan-2-yl]-1-ethylurea]: the negative-log EC50 (pEC50) in assay [1] (setting [4]) was less than 5.00; in assay [2] (setting [5]), 8.40.
As to `CCN(C(=O)NCC(CC)(CC)N(C)C)C(=O)[C@@H]1C[C@@H]2Cc3c(sc(N)c3C#N)C[C@H]2N(C)C1` [1-107, 1-{[(4aR,6R,8aR)-2-amino-3-cyano-8-methyl-4H,4aH,5H,6H,7H,8H,8aH,9H-thieno[3,2-g]quinolin-6-yl]carbonyl}-3-[2-(dimethylamino)-2-ethylbutyl]-1-ethylurea], the “Total number or rotations” value in assay [3] (contralateral rotations) is on record as 4033.3. In addition, the Duration in assay [3] (duration of contralateral rotation response) amounted to 1068.3 min. Besides, in assay [1] (setting [4]), the pEC50 is less than 5.00.
`CN(C)CCNC(=O)N(CC1CC1)C(=O)[C@@H]1C[C@@H]2Cc3c(sc(N)c3C#N)C[C@H]2N(C)C1` [1-109, 1-{[(4aR,6R,8aR)-2-amino-3-cyano-8-methyl-4H,4aH,5H,6H,7H,8H,8aH,9H-thieno[3,2-g]quinolin-6-yl]carbonyl}-1-(cyclopropylmethyl)-3-[2-(dimethylamino)ethyl]urea]: the pEC50 in assay [1] (setting [4]) was less than 5.00; in assay [2] (setting [5]) it was 8.52.
